# What was measured:
# [1] = target: Epidermal growth factor receptor (Homo sapiens, UniProt P00533); experiment: Inhibition of wild type EGFR (unknown origin) in presence of ATP preincubated 5 mins measured for 30 mins by detection reagent based HTRF analysis
# [2] = system: A-431; experiment: cells; conditions: Homo sapiens, A-431, 48 h
# Description: Antiproliferation activity against human A431 cells assessed as reduction in cell viability incubated incubated for 48 hrs by MTT assay
# [3] = target: Epidermal growth factor receptor (Homo sapiens, UniProt P00533, L858R/T790M); experiment: Inhibition of recombinant human EGFR T790M/L858R mutant expressed in baculovirus insect cell expression system in presence of ATP preincubated 5 mins measured for 30 mins by detection reagent based HTRF analysis
# [4] = system: SW-620; experiment: cells; conditions: Homo sapiens, SW-620, 48 h
# Description: Antiproliferation activity against EGFR-negative human SW620 cells assessed as reduction in cell viability incubated incubated for 48 hrs by MTT assay
# [5] = system: NCI-H1975; experiment: cells; conditions: Homo sapiens, NCI-H1975, 48 h
# [6] = system: COS-7; experiment: Cytotoxicity against African green monkey COS7 cells assessed as decrease in cell viability incubated incubated for 48 hrs by MTT assay; type: cell-based; conditions: Chlorocebus aethiops, COS-7, 48 h
# [7] = system: NCI-H1975; experiment: Cell cycle arrest in human NCI-H1975 cells assessed as accumulation at G2/G1 phase at 0.25 uM incubated for 24 hrs measured after 2 days by propidium iodide staining based flow cytometric analysis (reference value: 1.89 %); type: functional
# [8] = system: NCI-H1975; experiment: Cell cycle arrest in human NCI-H1975 cells assessed as accumulation at G2 phase at 0.25 uM incubated for 24 hrs measured after 2 days by propidium iodide staining based flow cytometric analysis (reference value: 34.04 %); type: functional
# [9] = system: NCI-H1975; experiment: Cell cycle arrest in human NCI-H1975 cells assessed as accumulation at G2/G1 phase at 0.5 uM incubated for 24 hrs measured after 2 days by propidium iodide staining based flow cytometric analysis (reference value: 1.89 %); type: functional
# [10] = system: NCI-H1975; experiment: Cell cycle arrest in human NCI-H1975 cells assessed as diploid cell at 0.5 uM incubated for 24 hrs measured after 2 days by propidium iodide staining based flow cytometric analysis (reference value: 100 %); type: functional
# [11] = system: NCI-H1975; experiment: Cell cycle arrest in human NCI-H1975 cells assessed as accumulation at G2/G1 phase at 1 uM incubated for 24 hrs measured after 2 days by propidium iodide staining based flow cytometric analysis (reference value: 1.89 %); type: functional
# [12] = system: NCI-H1975; experiment: Cell cycle arrest in human NCI-H1975 cells assessed as accumulation at S phase at 0.5 uM incubated for 24 hrs measured after 2 days by propidium iodide staining based flow cytometric analysis (reference value: 24.04 %); type: functional
# [13] = system: NCI-H1975; experiment: Cell cycle arrest in human NCI-H1975 cells assessed as accumulation at G1 phase at 0.25 uM incubated for 24 hrs measured after 2 days by propidium iodide staining based flow cytometric analysis (reference value: 41.92 %); type: functional
# [14] = system: NCI-H1975; experiment: Cell cycle arrest in human NCI-H1975 cells assessed as accumulation at S phase at 1 uM incubated for 24 hrs measured after 2 days by propidium iodide staining based flow cytometric analysis (reference value: 24.04 %); type: functional
# [15] = system: NCI-H1975; experiment: Cell cycle arrest in human NCI-H1975 cells assessed as diploid cell at 0.25 uM incubated for 24 hrs measured after 2 days by propidium iodide staining based flow cytometric analysis (reference value: 100 %); type: functional
# [16] = system: NCI-H1975; experiment: Cell cycle arrest in human NCI-H1975 cells assessed as accumulation at G2 phase at 0.5 uM incubated for 24 hrs measured after 2 days by propidium iodide staining based flow cytometric analysis (reference value: 34.04 %); type: functional
# [17] = system: NCI-H1975; experiment: Cell cycle arrest in human NCI-H1975 cells assessed as accumulation at G2 phase at 1 uM incubated for 24 hrs measured after 2 days by propidium iodide staining based flow cytometric analysis (reference value: 34.04 %); type: functional
# [18] = system: NCI-H1975; experiment: Cell cycle arrest in human NCI-H1975 cells assessed as accumulation at S phase at 0.25 uM incubated for 24 hrs measured after 2 days by propidium iodide staining based flow cytometric analysis (reference value: 24.04 %); type: functional
# [19] = system: NCI-H1975; experiment: Cell cycle arrest in human NCI-H1975 cells assessed as accumulation at G1 phase at 1 uM incubated for 24 hrs measured after 2 days by propidium iodide staining based flow cytometric analysis (reference value: 41.92 %); type: functional
# [20] = system: NCI-H1975; experiment: Cell cycle arrest in human NCI-H1975 cells assessed as decrease in accumulation at G2/M phase at 0.25 to 1 uM incubated for 24 hrs measured after 2 days by propidium iodide staining based flow cytometric analysis (reference value: 34.04%); type: functional; parameters: scale not given: the % may be the effect or the level left; conditions: dose microM 0.25-1
# [21] = system: NCI-H1975; experiment: Cell cycle arrest in human NCI-H1975 cells assessed as diploid cell at 1 uM incubated for 24 hrs measured after 2 days by propidium iodide staining based flow cytometric analysis (reference value: 100 %); type: functional
# [22] = system: NCI-H1975; experiment: Cell cycle arrest in human NCI-H1975 cells assessed as increase in accumulation at G0/G1 phase at 0.25 to 1 uM treated for 24 hrs measured after 2 days by propidium iodide staining based flow cytometric analysis (reference value: 41.92%); type: functional; conditions: dose microM 0.25-1
# [23] = system: NCI-H1975; experiment: Cell cycle arrest in human NCI-H1975 cells assessed as accumulation at G1 phase at 0.5 uM incubated for 24 hrs measured after 2 days by propidium iodide staining based flow cytometric analysis (reference value: 41.92 %); type: functional
# Epidermal growth factor receptor (Homo sapiens, UniProt P00533, L858R/T790M), sequence (P00533 25-1210 T790M/L858R limits assumed): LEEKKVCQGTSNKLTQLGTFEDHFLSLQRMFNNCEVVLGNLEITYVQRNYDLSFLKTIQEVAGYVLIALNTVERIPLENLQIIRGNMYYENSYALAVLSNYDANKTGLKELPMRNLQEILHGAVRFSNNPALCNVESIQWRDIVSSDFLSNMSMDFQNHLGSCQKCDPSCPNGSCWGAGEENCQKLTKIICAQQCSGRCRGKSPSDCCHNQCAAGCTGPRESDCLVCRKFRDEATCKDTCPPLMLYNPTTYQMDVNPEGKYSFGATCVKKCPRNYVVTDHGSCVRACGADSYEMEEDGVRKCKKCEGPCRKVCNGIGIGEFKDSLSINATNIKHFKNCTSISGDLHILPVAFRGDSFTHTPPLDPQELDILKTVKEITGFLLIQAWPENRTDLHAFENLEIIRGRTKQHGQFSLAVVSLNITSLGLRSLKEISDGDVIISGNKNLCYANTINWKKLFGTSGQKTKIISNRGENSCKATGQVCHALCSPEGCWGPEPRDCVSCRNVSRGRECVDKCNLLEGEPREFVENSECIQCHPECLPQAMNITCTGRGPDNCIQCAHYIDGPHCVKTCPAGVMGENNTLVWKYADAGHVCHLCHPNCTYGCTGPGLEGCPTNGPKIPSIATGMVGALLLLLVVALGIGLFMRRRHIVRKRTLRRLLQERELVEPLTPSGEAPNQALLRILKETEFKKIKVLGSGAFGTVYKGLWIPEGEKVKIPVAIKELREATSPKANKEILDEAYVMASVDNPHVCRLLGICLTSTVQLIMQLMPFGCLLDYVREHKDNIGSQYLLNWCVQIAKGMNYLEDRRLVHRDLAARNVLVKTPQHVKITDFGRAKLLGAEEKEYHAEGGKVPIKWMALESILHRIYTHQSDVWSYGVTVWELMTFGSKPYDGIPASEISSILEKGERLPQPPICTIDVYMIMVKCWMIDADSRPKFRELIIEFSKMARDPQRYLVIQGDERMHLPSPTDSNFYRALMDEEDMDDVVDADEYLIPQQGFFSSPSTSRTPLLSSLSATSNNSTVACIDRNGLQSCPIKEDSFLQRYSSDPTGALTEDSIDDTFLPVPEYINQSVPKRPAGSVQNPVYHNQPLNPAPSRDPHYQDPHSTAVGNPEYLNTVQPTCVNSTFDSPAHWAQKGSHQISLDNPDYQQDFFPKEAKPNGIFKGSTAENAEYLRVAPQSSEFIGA
# Epidermal growth factor receptor (Homo sapiens, UniProt P00533), sequence (P00533 whole entry): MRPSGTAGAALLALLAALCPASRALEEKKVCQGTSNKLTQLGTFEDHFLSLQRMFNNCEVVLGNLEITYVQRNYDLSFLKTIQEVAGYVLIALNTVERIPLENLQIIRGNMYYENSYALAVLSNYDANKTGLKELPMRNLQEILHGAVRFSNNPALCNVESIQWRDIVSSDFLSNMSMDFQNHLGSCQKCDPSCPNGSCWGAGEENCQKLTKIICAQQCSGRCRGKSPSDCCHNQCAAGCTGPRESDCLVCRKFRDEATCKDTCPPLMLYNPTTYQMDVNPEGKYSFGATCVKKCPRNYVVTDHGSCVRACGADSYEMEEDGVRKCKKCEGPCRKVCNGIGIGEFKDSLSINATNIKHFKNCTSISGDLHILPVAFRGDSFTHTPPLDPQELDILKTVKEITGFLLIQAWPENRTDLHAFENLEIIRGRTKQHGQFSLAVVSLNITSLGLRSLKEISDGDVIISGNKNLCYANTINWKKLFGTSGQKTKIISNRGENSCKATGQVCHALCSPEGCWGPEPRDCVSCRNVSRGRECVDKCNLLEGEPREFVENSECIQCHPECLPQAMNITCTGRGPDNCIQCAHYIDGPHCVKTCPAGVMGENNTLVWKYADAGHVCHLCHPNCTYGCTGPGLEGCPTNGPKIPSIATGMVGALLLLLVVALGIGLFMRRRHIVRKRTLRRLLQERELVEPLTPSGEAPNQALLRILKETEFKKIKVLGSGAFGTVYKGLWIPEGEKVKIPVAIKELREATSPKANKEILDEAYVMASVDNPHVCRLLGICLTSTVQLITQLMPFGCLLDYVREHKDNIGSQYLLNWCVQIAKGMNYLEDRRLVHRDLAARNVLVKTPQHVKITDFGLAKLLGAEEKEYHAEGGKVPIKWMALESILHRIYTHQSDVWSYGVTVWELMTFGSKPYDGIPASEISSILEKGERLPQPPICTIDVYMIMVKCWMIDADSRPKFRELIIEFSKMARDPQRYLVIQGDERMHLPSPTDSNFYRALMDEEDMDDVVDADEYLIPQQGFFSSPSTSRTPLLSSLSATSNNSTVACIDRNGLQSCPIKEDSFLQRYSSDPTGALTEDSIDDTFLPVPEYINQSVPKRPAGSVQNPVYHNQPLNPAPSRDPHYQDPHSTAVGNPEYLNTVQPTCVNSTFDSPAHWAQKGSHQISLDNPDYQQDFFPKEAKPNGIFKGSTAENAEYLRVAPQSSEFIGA
Structure (SMILES),IC50 [2] [µM],IC50 [4] [µM],IC50 [5] [µM],other results
C=C(Cl)C(=O)Nc1cccc(Nc2nc(Nc3ccc(N4CCN(C(C)=O)CC4)nc3)ncc2Cl)c1,0.87,2.41,1.64,IC50 [1]: 0.13 µM; IC50 [3]: 0.0075 µM
C=C(F)C(=O)Nc1cccc(Nc2nc(Nc3ccc(N4CCN(C(C)=O)CC4)cc3OC)ncc2Cl)c1,1.58,,1.82,
C=C(Cl)C(=O)Nc1cccc(Oc2nc(Nc3ccc(N4CCN(C)CC4)cc3OC)ncc2Cl)c1,1.06,,13.6,
C=C(Cl)C(=O)Nc1cccc(Nc2nc(Nc3ccc(N4CCN(C(C)=O)CC4)cc3OC)ncc2Cl)c1,4.44,,3.12,
C=C(Cl)C(=O)Nc1cccc(Nc2nc(Nc3ccc(N4CCN(C(C)=O)CC4)c(C)c3)ncc2Cl)c1,1.3,2.07,0.18,IC50 [1]: 0.051 µM; IC50 [6]: 5.4 µM; IC50 [3]: 0.0026 µM
C=C(Cl)C(=O)Nc1cccc(Nc2nc(Nc3ccc(N4CCN(C(C)=O)CC4)cc3OC)ncc2C(F)(F)F)c1,3.68,3.99,0.2,IC50 [1]: 0.257 µM; IC50 [3]: 0.016 µM
C=C(F)C(=O)Nc1cc(Nc2ncc(Cl)c(-c3cn(C)c4ccccc34)n2)ccc1N(C)C,> 50,,> 50,
C=C(F)C(=O)Nc1cccc(Oc2nc(Nc3ccc(N4CCN(C(C)=O)CC4)cc3OC)ncc2Cl)c1,> 50,,7.03,
C=C(Cl)C(=O)Nc1cccc(Oc2nc(Nc3ccc(N4CCN(C(C)=O)CC4)c(C(F)(F)F)c3)ncc2Cl)c1,1.47,,2.5,
C=C(F)C(=O)Nc1cccc(Nc2nc(Nc3ccc(N4CCN(C(C)=O)CC4)c(C(F)(F)F)c3)ncc2Cl)c1,2.86,,9.88,
C=C(Cl)C(=O)Nc1cccc(Nc2nc(Nc3ccc(N4CCN(C(C)=O)CC4)c(Cl)c3)ncc2Cl)c1,0.14,2.34,1.02,IC50 [1]: 0.053 µM; IC50 [6]: 7.22 µM; IC50 [3]: 0.0032 µM
C=C(Cl)C(=O)Nc1cccc(Nc2nc(Nc3ccc(N4CCN(C(C)=O)CC4)cc3Cl)ncc2Cl)c1,1.83,3.02,1.72,IC50 [1]: 0.301 µM; IC50 [6]: 14.9 µM; IC50 [3]: 0.047 µM
C=C(C(=O)Nc1cccc(Nc2nc(Nc3ccc(N4CCN(C(C)=O)CC4)cc3)ncc2Cl)c1)c1ccccc1,6.16,,5.79,
C=C(Cl)C(=O)Nc1cccc(Oc2nc(Nc3ccc(N4CCN(C(C)=O)CC4)cc3OC)ncc2Cl)c1,1.89,,3.32,
C=C(Cl)C(=O)Nc1cccc(Nc2nc(Nc3ccc(N4CCN(C(C)=O)CC4)c(F)c3)ncc2Cl)c1,1.14,,0.42,
C=C(F)C(=O)Nc1cccc(Nc2nc(Nc3ccc(N4CCN(C(C)=O)CC4)c(F)c3)ncc2Cl)c1,7.09,,6.56,
C=C(C)C(=O)Nc1cccc(Nc2nc(Nc3ccc(N4CCN(C(C)=O)CC4)cc3OC)ncc2Cl)c1,2.37,,3.82,
C=C(Cl)C(=O)Nc1cccc(Oc2nc(Nc3ccc(N4CCN(C(C)=O)CC4)cc3)ncc2Cl)c1,0.62,4.6,1.15,IC50 [1]: 0.13 µM; IC50 [3]: 0.013 µM
C=C(Cl)C(=O)Nc1cc(Nc2ncc(Cl)c(-c3cn(C)c4ccccc34)n2)ccc1N(C)C,2.2,,16.9,
C=C(F)C(=O)Nc1cccc(Nc2nc(Nc3ccc(N4CCN(C(C)=O)CC4)c(Cl)c3)ncc2Cl)c1,7.13,,4.18,
C=C(C)C(=O)Nc1cccc(Nc2nc(Nc3ccc(N4CCN(C(C)=O)CC4)cc3)ncc2Cl)c1,10.6,,5.57,
C=C(Cl)C(=O)Nc1cccc(Nc2nc(Nc3ccc(N4CCN(C(C)=O)CC4)cc3)ncc2Cl)c1,3.14,29.2,0.75,Activity [7]: 1.95%; Activity [8]: 24.27%; IC50 [1]: 0.07 µM; Activity [9]: 1.94%; IC50 [6]: 10.4 µM; Activity [10]: 98.81%; Activity [11]: 1.89%; Activity [12]: 19.43%; IC50 [3]: 0.0039 µM; Activity [13]: 54.06%; Activity [14]: 16.89%; Activity [15]: 98.52%; Activity [16]: 22.18%; Activity [17]: 19.15%; Activity [18]: 21.67%; Activity [19]: 63.96%; Activity [20]: 22.18%; Activity [21]: 99.81%; Activity [22]: 58.39%; Activity [23]: 58.39%
C=C(F)C(=O)Nc1cccc(Nc2nc(Nc3ccc(N4CCN(C(C)=O)CC4)cc3)ncc2Cl)c1,6.5,3.61,0.34,
C=C(F)C(=O)Nc1cccc(Nc2nc(Nc3ccc(N4CCN(C(C)=O)CC4)nc3)ncc2Cl)c1,18.1,,20.5,
C=C(F)C(=O)Nc1cccc(Oc2nc(Nc3ccc(N4CCN(C)CC4)cc3OC)ncc2Cl)c1,11,,16.7,
C=CC(=O)Nc1cccc(Nc2nc(Nc3ccc(N4CCN(C(C)=O)CC4)cc3OC)ncc2C(F)(F)F)c1 [ROCILETINIB],6.01,10.5,0.51,IC50 [6]: 7.39 µM
